Measurements reported in US20100160369A1, “S1P1 Agonists and Methods of Making And Using” (EXELIXIS, INC., priority 2008, published 2010).
Counter-ions that a name gives are not always drawn. Like-named read-outs stand apart in the source and are kept apart here.

Biological target: S1P1 (Homo sapiens, UniProt P21453)
Experiment: Tango β-arrestin Recruitment Assay in U2OS cells (Assay 2b)
Assay type: cell-based
Parameters: linker with TEV protease (N1a) cleavage site (C)
Conditions: Tango β-arrestin Recruitment Assay
Source text: For the Tango™ β-arrestin recruitment assay, the cytoplasmic C-terminus of S1P1 is tethered to the tTA transcriptional activator with a linker that contains a cleavage site for the N1a protease from tobacco etch virus (TEV protease). The C-terminus of the human β-arrestin2 protein is fused to TEV protease. Binding of an agonist recruits the β-arrestin-TEV fusion protein to the receptor resulting in cleavage of the linker and release of tTA to enter the nucleus and subsequently activate a tTA-dependent luciferase reporter gene.
Alternatively, U2OS cells expressing the reporter gene and S1P1 (Invitrogen) were added to the wells of a 384-well white opaque bottom assay plate (PerkinElmer) at […] per well. The cells were serum starved for 48 h in Freestyle medium (Invitrogen). Test compounds were tested at maximum concentrations of 1 μM for the agonist assay. Compounds were diluted in DMSO (10 concentration points, 3-fold each) and added to the assay plate at a 1% final DMSO concentration. The efficacy control was 1 μM S1P (Avanti). For each compound, there were duplicate assay plates and each assay plate had duplicate wells per concentration point. The plate was incubated overnight at 37° C. The GeneBLAzer β-lactamase assay reagent (Invitrogen) was added and the plates were incubated for an additional 2 h at room temperature. Fluorescence was measured using an EnVision plate reader (PerkinElmer, Waltham, Mass.) at an excitation wavelength of 409 nm and emission wavelengths of 460 nm and 530 nm. The emission intensity at each wavelength was background subtracted against wells containing medium only and the F460 nm/F530 nm ratio determined for each concentration of the test compounds. Percent activity was calculated as [(test compound ratio−DMSO ratio)/(positive control ratio−DMSO ratio)*100], where the positive control and DMSO ratios are from cells incubated with the efficacy control 1 μM S1P and 1% DMSO, respectively. The percent activities were plotted against compound concentration to determine EC50 using XLFit (IDBS).
Assay 1 is the CNG cAMP Assay as described in Biological Example 1. Assay 2a and 2b are the Tango™ β-arrestin Recruitment Assay in HEK293 and U2OS cells, respectively, as described in Biological Example 2. Assay 3a is the hS1P1R GTPγS Binding Assay as described in Biological Example 3. Assay 3b is the GTP-Eu Binding Assay as described in Biological Example 3. EC50's were measured unless otherwise noted. […] In the table, “nt” means the Compound was not tested and “no” means the compound was tested but had no measurable activity under the assay conditions employed.

[1] = footnote 1: Relative EC50 was measured, read-out: Assay 2b relative EC50

S1P1, sequence (P21453 whole entry): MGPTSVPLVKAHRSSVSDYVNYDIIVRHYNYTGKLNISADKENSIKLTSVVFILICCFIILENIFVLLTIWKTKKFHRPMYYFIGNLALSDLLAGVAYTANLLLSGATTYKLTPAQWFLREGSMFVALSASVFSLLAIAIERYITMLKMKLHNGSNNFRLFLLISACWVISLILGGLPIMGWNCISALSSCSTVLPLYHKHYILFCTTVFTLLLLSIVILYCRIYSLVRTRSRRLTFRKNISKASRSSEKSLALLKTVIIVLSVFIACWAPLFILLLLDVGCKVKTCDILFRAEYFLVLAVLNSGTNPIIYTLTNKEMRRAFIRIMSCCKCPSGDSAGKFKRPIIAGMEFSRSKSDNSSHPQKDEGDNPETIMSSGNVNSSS
S1P1, sequence (P32121 whole entry partner): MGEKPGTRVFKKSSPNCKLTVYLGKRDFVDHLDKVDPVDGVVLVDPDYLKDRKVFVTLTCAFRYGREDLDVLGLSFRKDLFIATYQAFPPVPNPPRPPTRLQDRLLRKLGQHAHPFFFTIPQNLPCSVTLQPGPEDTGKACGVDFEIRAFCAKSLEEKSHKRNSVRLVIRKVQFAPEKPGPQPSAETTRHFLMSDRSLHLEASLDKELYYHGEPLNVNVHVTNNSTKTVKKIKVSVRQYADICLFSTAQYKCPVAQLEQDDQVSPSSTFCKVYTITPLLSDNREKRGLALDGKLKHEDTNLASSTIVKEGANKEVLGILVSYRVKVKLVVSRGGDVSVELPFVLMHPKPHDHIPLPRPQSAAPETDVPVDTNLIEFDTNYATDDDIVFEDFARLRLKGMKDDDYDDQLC

SMILES | EC50 (read-out: Assay 2b EC50) | EC50 [1]
N[C@@H](CO)COc1cc(Cl)c(-c2nnc(-c3cn4cc(C(F)(F)F)ccc4n3)s2)cc1F [Example 309, (2S)-2-amino-3-[(5-chloro-2-fluoro-4-{5-[6-(trifluoromethyl)imidazo[1,2-a]pyridin-2-yl]-1,3,4-thiadiazol-2-yl}phenyl)oxy]propan-1-ol] | ≤ 100 nM | –
COc1ccc2nc(-c3nnc(-c4cc(F)c(OC[C@@H](N)CO)cc4Cl)s3)cn2c1 [Example 310, (2S)-2-amino-3-[(5-chloro-2-fluoro-4-{5-[6-(methyloxy)imidazo[1,2-a]pyridin-2-yl]-1,3,4-thiadiazol-2-yl}phenyl)oxy]propan-1-ol] | ≤ 100 nM | –
OCC(F)(F)COc1cc(Cl)c(-c2noc(-c3cn4cc(C(F)(F)F)cc(Cl)c4n3)n2)cc1Cl [Example 311, 3-[(2,5-dichloro-4-{5-[8-chloro-6-(trifluoromethyl)imidazo[1,2-a]pyridin-2-yl]-1,2,4-oxadiazol-3-yl}phenyl)oxy]-2,2-difluoropropan-1-ol] | ≤ 100 nM | –
CC(O)COc1cc(Cl)c(-c2noc(-c3cn4cc(C(F)(F)F)cc(Br)c4n3)n2)cc1Cl (stereo not shown) [Example 316, 1-[(4-{5-[8-bromo-6-(trifluoromethyl)imidazo[1,2-a]pyridin-2-yl]-1,2,4-oxadiazol-3-yl}-2,5-dichlorophenyl)oxy]propan-2-ol] | ≤ 100 nM | –
COCC(O)COc1cc(Cl)c(-c2noc(-c3cn4cc(C(F)(F)F)cc(Cl)c4n3)n2)cc1Cl (stereo not shown) [Example 318, 1-[(2,5-dichloro-4-{5-[8-chloro-6-(trifluoromethyl)imidazo[1,2-a]pyridin-2-yl]-1,2,4-oxadiazol-3-yl}phenyl)oxy]-3-(methyloxy)propan-2-ol] | ≤ 100 nM | –
C[C@@H](COc1cc(Cl)c(-c2noc(-c3cn4cc(C(F)(F)F)cc(Br)c4n3)n2)cc1Cl)OP(=O)(O)O [Example 325, (1S)-2-[(4-{5-[8-bromo-6-(trifluoromethyl)imidazo[1,2-a]pyridin-2-yl]-1,2,4-oxadiazol-3-yl}-2,5-dichlorophenyl)oxy]-1-methylethyl dihydrogen phosphate] | ≤ 100 nM | –
C[C@H](COc1cc(Cl)c(-c2noc(-c3cn4cc(C(F)(F)F)cc(Cl)c4n3)n2)cc1Cl)OP(=O)(O)O [Example 328, (1R)-2-[(2,5-dichloro-4-{5-[8-chloro-6-(trifluoromethyl)imidazo[1,2-a]pyridin-2-yl]-1,2,4-oxadiazol-3-yl}phenyl)oxy]-1-methylethyl dihydrogen phosphate] | ≤ 100 nM | –
C[C@H](COc1cc(Cl)c(-c2noc(-c3cn4cc(C(F)(F)F)cc(Cl)c4n3)n2)cc1Cl)OS(=O)(=O)O [Example 331, (1R)-2-[(2,5-dichloro-4-{5-[8-chloro-6-(trifluoromethyl)imidazo[1,2-a]pyridin-2-yl]-1,2,4-oxadiazol-3-yl}phenyl)oxy]-1-methylethyl hydrogen sulfate] | ≤ 100 nM | –
CS(=O)(=O)CCOc1cc(Cl)c(-c2noc(-c3cn4cc(C(F)(F)F)cc(Cl)c4n3)n2)cc1Cl [Example 333, 8-chloro-2-[3-(2,5-dichloro-4-{[2-(methylsulfonyl)ethyl]oxy}phenyl)-1,2,4-oxadiazol-5-yl]-6-(trifluoromethyl)imidazo[1,2-a]pyridine] | – | 100 to 500 nM
NC(CO)COc1cc(Cl)c(-c2nnc(-c3cn4cc(Br)ccc4n3)s2)cc1F (stereo not shown) [Example 339, 2-amino-3-({4-[5-(6-bromoimidazo[1,2-a]pyridin-2-yl)-1,3,4-thiadiazol-2-yl]-5-chloro-2-fluorophenyl}oxy)propan-1-ol] | ≤ 100 nM | –

Other lines, results leading:

EC50 (read-out: Assay 2b EC50) | EC50 [1] | SMILES
– | 100 to 500 nM | COC(=O)C(C)(O)COc1cc(Cl)c(-c2noc(-c3cn4cc(C(F)(F)F)cc(Cl)c4n3)n2)cc1Cl (stereo not shown) [Example 319, methyl 3-[(2,5-dichloro-4-{5-[8-chloro-6-(trifluoromethyl)imidazo[1,2-a]pyridin-2-yl]-1,2,4-oxadiazol-3-yl}phenyl)oxy]-2-hydroxy-2-methylpropanoate]
≤ 100 nM | – | O=C(O)C1CC1c1cc(Cl)c(-c2nnc(-c3cn4cc(C(F)(F)F)cc(Cl)c4n3)s2)cc1Cl (stereo not shown) [Example 320, 2-(2,5-dichloro-4-{5-[8-chloro-6-(trifluoromethyl)imidazo[1,2-a]pyridin-2-yl]-1,3,4-thiadiazol-2-yl}phenyl)cyclopropanecarboxylic acid]
≤ 100 nM | – | CC(O)CNc1cc(Cl)c(-c2noc(-c3cn4cc(C(F)(F)F)cc(Cl)c4n3)n2)cc1Cl (stereo not shown) [Example 323, 1-[(2,5-dichloro-4-{5-[8-chloro-6-(trifluoromethyl)imidazo[1,2-a]pyridin-2-yl]-1,2,4-oxadiazol-3-yl}phenyl)amino]propan-2-ol]
≤ 100 nM | – | CC(O)(COc1cc(Cl)c(-c2noc(-c3cn4cc(C(F)(F)F)cc(Cl)c4n3)n2)cc1Cl)C(=O)O (stereo not shown) [Example 327, 3-[(2,5-dichloro-4-{5-[8-chloro-6-(trifluoromethyl)imidazo[1,2-a]pyridin-2-yl]-1,2,4-oxadiazol-3-yl}phenyl)oxy]-2-hydroxy-2-methylpropanoic acid]
≤ 100 nM | – | Cc1cc(CCC(=O)O)c(Cl)cc1-c1nc(-c2cn3cc(C(F)(F)F)cc(Cl)c3n2)no1 [Example 329, 3-(2-chloro-4-{3-[8-chloro-6-(trifluoromethyl)imidazo[1,2-a]pyridin-2-yl]-1,2,4-oxadiazol-5-yl}-5-methylphenyl)propanoic acid]
≤ 100 nM | – | CS(=O)(=O)NCc1ccc(-c2nnc(-c3cn4cc(C(F)(F)F)cc(Cl)c4n3)s2)c(Cl)c1 [Example 332, N-[(3-chloro-4-{5-[8-chloro-6-(trifluoromethyl)imidazo[1,2-a]pyridin-2-yl]-1,3,4-thiadiazol-2-yl}phenyl)methyl]methanesulfonamide]
≤ 100 nM | – | N[C@@H](CO)COc1cc(Cl)c(-c2nnc(-c3cn4cc(C(F)(F)F)cc(Cl)c4n3)s2)cc1F [Example 335, (2S)-2-Amino-3-[(5-chloro-4-{5-[8-chloro-6-(trifluoromethyl)imidazo[1,2-a]pyridin-2-yl]-1,3,4-thiadiazol-2-yl}-2-fluorophenyl)oxy]propan-1-ol]
≤ 100 nM | – | NCC(O)COc1cc(Cl)c(-c2nnc(-c3cn4cc(C(F)(F)F)cc(Cl)c4n3)s2)cc1Cl (stereo not shown) [Example 336, 1-amino-3-[(2,5-dichloro-4-{5-[8-chloro-6-(trifluoromethyl)imidazo[1,2-a]pyridin-2-yl]-1,3,4-thiadiazol-2-yl}phenyl)oxy]propan-2-ol]
100 to 500 nM | – | Nc1cc(Cl)c(-c2noc(-c3cn4cc(C(F)(F)F)cc(Cl)c4n3)n2)cc1Cl [Example 337, 2,5-dichloro-4-{5-[8-chloro-6-(trifluoromethyl)imidazo[1,2-a]pyridin-2-yl]-1,2,4-oxadiazol-3-yl}aniline]
100 to 500 nM | – | Oc1cc(Cl)c(-c2nnc(-c3cn4cc(C(F)(F)F)cc(Cl)c4n3)s2)cc1F [Example 338, 5-chloro-4-{5-[8-chloro-6-(trifluoromethyl)imidazo[1,2-a]pyridin-2-yl]-1,3,4-thiadiazol-2-yl}-2-fluorophenol]
– | 5000 to 10000 nM | CC(N)COc1cc(Cl)c(-c2nnc(-c3cn4cc(C(F)(F)F)ccc4n3)s2)cc1Cl (stereo not shown) [Example 340, 1-[(2,5-dichloro-4-{5-[6-(trifluoromethyl)imidazo[1,2-a]pyridin-2-yl]-1,3,4-thiadiazol-2-yl}phenyl)oxy]propan-2-amine]
– | 500 to 1000 nM | COc1cc(Cl)c(-c2noc(-c3cn4cc(C(F)(F)F)cc(Cl)c4n3)n2)cc1Cl [Example 341]
